Data reported in patent US20240228504A1, “SUBSTITUTED TRICYCLIC AMIDES, ANALOGUES THEREOF, AND METHODS USING SAME” (Arbutus Biopharma Corporation, priority 2020, published 2024).

Each compound was assayed on HBV rcDNA in HepDE19 cells (assay: HepDE19 assay with bDNA quantitation of HBV rcDNA). Conditions: HepDE19 assay, inhibition of rcDNA formation, bDNA quantitation; read-out: DE-19bDNA EC50.
Format: cell-based, hepatitis B virus
Compound CN(C(=O)c1cc2c(Cl)cccn2c1)C1COCc2[nH]c(=O)c3cc(F)c(F)cc3c21 (single isomer, unassigned) [Compound 18, 8-Chloro-N-(8,9-difluoro-6-oxo-1,4,5,6-tetrahydro-2H-pyrano[3,4-c]isoquinolin-1-yl)-N-methylindolizine-2-carboxamide] has an EC50 of 0.01 µM. CN(C(=O)c1cc(F)c(C(F)F)c(F)c1)C1CNCc2[nH]c(=O)c3cc(F)ccc3c21 (single isomer, unassigned) [Compound 185, 4-(Difluoromethyl)-3,5-difluoro-N-(8-fluoro-6-oxo-1,2,3,4,5,6-hexahydrobenzo[c][1,7]naphthyridin-1-yl)-N-methylbenzamide] was tested, and the EC50 was 24 µM. In the case of CN(C(=O)c1cc2cccc(C(F)F)n2c1)C1CNCc2[nH]c(=O)c3cc(F)c(F)cc3c21 (single isomer, unassigned) [Compound 432, N-(8,9-Difluoro-6-oxo-1,2,3,4,5,6-hexahydrobenzo[c][1,7]naphthyridin-1-yl)-5-(difluoromethyl)-N-methylindolizine-2-carboxamide], the EC50 is reported as 23 µM. In the case of CN(C(=O)c1cc2ccccc2[nH]1)C1CNCc2[nH]c(=O)c3cc(F)ccc3c21 (single isomer, unassigned) [Compound 77, N-(8-Fluoro-6-oxo-1,2,3,4,5,6-hexahydrobenzo[c][1,7]naphthyridin-1-yl)-N-methyl-1H-indole-2-carboxamide], the EC50 is reported as 0.15 µM. CN(C(=O)c1cc2cc(F)c(F)cc2[nH]1)C1COCc2nc(NCCN)c3cc(F)c(F)cc3c21 (single isomer, unassigned) [Compound 352, N-(6-((2-Aminoethyl)amino)-8,9-difluoro-1,4-dihydro-2H-pyrano[3,4-c]isoquinolin-1-yl)-5,6-difluoro-N-methyl-1H-indole-2-carboxamide] gave an EC50 of 0.59 µM. Compound CC(O)c1cc(F)cc2[nH]c(C(=O)N(C)[C@@H]3COCc4[nH]c(=O)c5cc(F)c(F)cc5c43)cc12 (single isomer, unassigned) [Compound 353] has an EC50 of 0.06 µM. Work on CN(C(=O)c1cc2c(F)cc(F)cc2[nH]1)C1CNCc2[nH]c(=O)c3cc(F)c(F)cc3c21 (single isomer, unassigned) [Compound 118, N-(8,9-Difluoro-6-oxo-1,2,3,4,5,6-hexahydrobenzo[c][1,7]naphthyridin-1-yl)-4,6-difluoro-N-methyl-1H-indole-2-carboxamide] yielded an EC50 of 1.2 µM. CN(C(=O)c1ccc2ncsc2c1)C1COCc2[nH]c(=O)c3cc(F)ccc3c21 (single isomer, unassigned) [Compound 447, N-(8-fluoro-6-oxo-1,4,5,6-tetrahydro-2H-pyrano[3,4-c]isoquinolin-1-yl)-N-methylbenzo[d]thiazole-6-carboxamide] was tested, and the EC50 was 0.94 µM. CN(C(=O)c1cc2cc(F)c(C(F)F)cc2[nH]1)C1COCc2[nH]c(=O)c3cc(F)ccc3c21 (single isomer, unassigned) [Compound 218, 6-(Difluoromethyl)-5-fluoro-N-(8-fluoro-6-oxo-1,4,5,6-tetrahydro-2H-pyrano[3,4-c]isoquinolin-1-yl)-N-methyl-1H-indole-2-carboxamide] was tested, and the EC50 was 0.03 µM. CN(C(=O)c1cc2c([nH]1)CCC(F)(F)C2)C1COCc2[nH]c(=O)c3cc(F)c(F)cc3c21 (single isomer, unassigned) [Compound 48, N-(8,9-Difluoro-6-oxo-1,4,5,6-tetrahydro-2H-pyrano[3,4-c]isoquinolin-1-yl)-5,5-difluoro-N-methyl-4,5,6,7-tetrahydro-1H-indole-2-carboxamide] gave an EC50 of 0.77 µM. CN(C(=O)c1cc2cc(F)c(C(F)F)cc2[nH]1)C1COCc2[nH]c(=O)c3cc(F)ccc3c21 (single isomer, unassigned) [Compound 217, 6-(Difluoromethyl)-5-fluoro-N-(8-fluoro-6-oxo-1,4,5,6-tetrahydro-2H-pyrano[3,4-c]isoquinolin-1-yl)-N-methyl-1H-indole-2-carboxamide] gave an EC50 of 0.88 µM.

Same assay, conditions: Hepatitis B virus, HepDE19, HepDE19 assay, inhibition of rcDNA formation, bDNA quantitation; read-out: DE-19bDNA EC50
CN(C(=O)C1CN(c2csc(Cl)c2)C1)[C@@H]1COCc2[nH]c(=O)c3cc(F)c(F)cc3c21 [Compound 370, (S)-1-(5-Chlorothiophen-3-yl)-N-(8,9-difluoro-6-oxo-1,4,5,6-tetrahydro-2H-pyrano[3,4-c]isoquinolin-1-yl)-N-methylazetidine-3-carboxamide] showed an EC50 of 0.49 µM. CN(C(=O)c1ccc2nccnc2c1)[C@@H]1COCc2[nH]c(=O)c3cc(F)c(F)cc3c21 [Compound 72, (S)-N-(8,9-Difluoro-6-oxo-1,4,5,6-tetrahydro-2H-pyrano[3,4-c]isoquinolin-1-yl)-N-methylquinoxaline-6-carboxamide] was tested, and the EC50 was 3.8 µM. Work on CN(C(=O)c1cccc(Cl)c1)[C@@H]1COCc2[nH]c(=O)c3cc(F)c(F)cc3c21 [Compound 128, (S)-3-Chloro-N-(8,9-difluoro-6-oxo-1,4,5,6-tetrahydro-2H-pyrano[3,4-c]isoquinolin-1-yl)-N-methylbenzamide] yielded an EC50 of 0.09 µM. Compound CN(C(=O)[C@H](O)Cc1ccccc1)[C@@H]1COCc2[nH]c(=O)c3cc(F)c(F)cc3c21 [Compound 88, (R)-N-((S)-8,9-Difluoro-6-oxo-1,4,5,6-tetrahydro-2H-pyrano[3,4-c]isoquinolin-1-yl)-2-hydroxy-N-methyl-3-phenylpropanamide] has an EC50 of 0.48 µM. CN(C(=O)c1cc2c(OC(F)(F)F)cccc2[nH]1)[C@@H]1COCc2[nH]c(=O)c3cc(F)c(F)cc3c21 [Compound 363, (S)-N-(8,9-Difluoro-6-oxo-1,4,5,6-tetrahydro-2H-pyrano[3,4-c]isoquinolin-1-yl)-N-methyl-4-(trifluoromethoxy)-1H-indole-2-carboxamide] gave an EC50 of 0.02 µM. Compound CN(C(=O)c1cnn(C(F)(F)F)c1)[C@@H]1COCc2[nH]c(=O)c3cc(F)c(F)cc3c21 [Compound 197, (S)-N-(8,9-Difluoro-6-oxo-1,4,5,6-tetrahydro-2H-pyrano[3,4-c]isoquinolin-1-yl)-N-methyl-1-(trifluoromethyl)-1H-pyrazole-4-carboxamide] has an EC50 of 0.44 µM. Compound CN(C(=O)C1Cc2ccccc21)[C@@H]1COCc2[nH]c(=O)c3cc(F)c(F)cc3c21 (stereo partly drawn) [Compound 269, N-((S)-8,9-Difluoro-6-oxo-1,4,5,6-tetrahydro-2H-pyrano[3,4-c]isoquinolin-1-yl)-N-methylbicyclo[4.2.0]octa-1(6),2,4-triene-7-carboxamide] has an EC50 of 18.6 µM. CN(C(=O)c1cc2cc(F)c(F)cc2[nH]1)[C@@H]1COCc2[nH]c(=O)c3cc(F)c(F)cc3c21 [Compound 42, (S)-N-(8,9-difluoro-6-oxo-1,4,5,6-tetrahydro-2H-pyrano[3,4-c]isoquinolin-1-yl)-5,6-difluoro-N-methyl-1H-indole-2-carboxamide] showed an EC50 of 0.005 µM. CN(C(=O)c1cccc(Oc2cccc(F)c2)c1)[C@@H]1COCc2[nH]c(=O)c3cc(F)c(F)cc3c21 [Compound 322, (S)-N-(8,9-Difluoro-6-oxo-1,4,5,6-tetrahydro-2H-pyrano[3,4-c]isoquinolin-1-yl)-3-(3-fluorophenoxy)-N-methylbenzamide] was tested, and the EC50 was 8.1 µM. Work on Cc1cccc2[nH]c(C(=O)N(C)[C@@H]3CCCc4[nH]c(=O)c5cc(F)c(F)cc5c43)cc12 [Compound 484, (R)-N-(8,9-difluoro-6-oxo-1,2,3,4,5,6-hexahydrophenanthridin-1-yl)-N,4-dimethyl-1H-indole-2-carboxamide] yielded an EC50 of 0.01 µM. CN(C(=O)c1ccc(Oc2cccc(F)c2)cc1)[C@@H]1COCc2[nH]c(=O)c3cc(F)c(F)cc3c21 [Compound 237, (S)-N-(8,9-Difluoro-6-oxo-1,4,5,6-tetrahydro-2H-pyrano[3,4-c]isoquinolin-1-yl)-4-(3-fluorophenoxy)-N-methylbenzamide] gave an EC50 of 6.9 µM. COC1OC[C@@H](N(C)C(=O)c2cc3cc(F)c(F)cc3[nH]2)c2c1[nH]c(=O)c1cc(F)c(F)cc21 (stereo partly drawn) [Compound 320, N-((1S)-8,9-Difluoro-4-methoxy-6-oxo-1,4,5,6-tetrahydro-2H-pyrano[3,4-c]isoquinolin-1-yl)-5,6-difluoro-N-methyl-1H-indole-2-carboxamide] showed an EC50 of 0.03 µM. With CN(C(=O)c1cc2ccccn2n1)[C@@H]1COCc2[nH]c(=O)c3cc(F)c(F)cc3c21 [Compound 64, (S)-N-(8,9-Difluoro-6-oxo-1,4,5,6-tetrahydro-2H-pyrano[3,4-c]isoquinolin-1-yl)-N-methylpyrazolo[1,5-a]pyridine-2-carboxamide] the EC50 was 0.63 µM. With CNS(=O)(=O)c1cccc(C(=O)N(C)C2CNCc3[nH]c(=O)c4cc(F)c(F)cc4c32)c1 (single isomer, unassigned) [Compound 319, N-(8,9-Difluoro-6-oxo-1,2,3,4,5,6-hexahydrobenzo[c][1,7]naphthyridin-1-yl)-N-methyl-3-(N-methylsulfamoyl)benzamide] the EC50 was 6.8 µM. CN([C@@H]1COCc2[nH]c(=O)c3cc(F)c(F)cc3c21)S(=O)(=O)c1cccc(C#N)c1 [Compound 145, (S)-3-Cyano-N-(8,9-difluoro-6-oxo-1,4,5,6-tetrahydro-2H-pyrano[3,4-c]isoquinolin-1-yl)-N-methylbenzenesulfonamide] gave an EC50 of 5.5 µM. For CN(C(=O)c1cc2sc(C#N)cc2[nH]1)[C@@H]1COCc2[nH]c(=O)c3cc(F)c(F)cc3c21 [Compound 468], the EC50 was 0.005 µM. For CN(C(=O)c1ccc2ccccn12)[C@@H]1COCc2[nH]c(=O)c3cc(F)c(F)cc3c21 [Compound 248, (S)-N-(8,9-Difluoro-6-oxo-1,4,5,6-tetrahydro-2H-pyrano[3,4-c]isoquinolin-1-yl)-N-methylindolizine-3-carboxamide], the EC50 was 5.38 µM. CN(C(=O)c1cnc(C(F)(F)F)c(F)c1)C1CNCc2[nH]c(=O)c3cc(F)c(F)cc3c21 (single isomer, unassigned) [Compound 435, N-(8,9-Difluoro-6-oxo-1,2,3,4,5,6-hexahydrobenzo[c][1,7]naphthyridin-1-yl)-5-fluoro-N-methyl-6-(trifluoromethyl)nicotinamide] was tested, and the EC50 was 0.26 µM. With CN(C(=O)c1cc2cnccc2[nH]1)[C@@H]1COCc2[nH]c(=O)c3cc(F)c(F)cc3c21 [Compound 308, (S)-N-(8,9-Difluoro-6-oxo-1,4,5,6-tetrahydro-2H-pyrano[3,4-c]isoquinolin-1-yl)-N-methyl-1H-pyrrolo[3,2-c]pyridine-2-carboxamide] the EC50 was 0.61 µM.
